Measured values: patent publication US11034725B2, “Compositions and methods for treating cardiovascular disease” (Genentech, Inc., priority 2016, dated 2021)
Entries after “also recorded” stand apart in the source; their conditions may differ. Where two headings read alike, the source gives them in different places. Bridge positions count the residues as written; N and C are the ends. Peptide text beside a SMILES is read from it.

Tests used:
[1] = target: T1, PCSK9 (Homo sapiens, UniProt Q8NBP7); test: Surface plasmon resonance biosensor-based affinity analysis (Example 4); format: binding; conditions: for Kd: Table 7, Target PCSK9, SPR at 20° C.
[2] = target: T2, PCSK9Δhelix (Homo sapiens, UniProt Q8NBP7); test: as above; format: binding
T2 construct: Human PCSK9 construct M1-Q692 with an engineered TEV site (residue deletion Y166, R167); made in house; host or cells: CHO

[3] = target: T1, PCSK9; test: PCSK9/EGF(A) TR-FRET binding assay; conditions: TR-FRET, read-out: PCSK9/EGF(A) IC50
[4] = tested on: His-EGF(A)-Fc; test: His-EGF(A)-Fc TR-FRET counterscreen
[5] = target: T2, PCSK9Δhelix; test: PCSK9Δhelix/Ab20 TR-FRET binding assay
[6] = target: T2, PCSK9Δhelix; test: SPR affinity measurements of peptide binding (Example 8); conditions: Table 10, binding to PCSK9Δhelix
Description: A Biacore™ T100 or Biacore™ 8K was adjusted to 20° C. The system was primed into assay buffer which consisted of 25 mM HEPES, pH 7.5, 0.15 M NaCl, 0.005% (v/v) Tween® 20, 0.2 mM tris(2-carboxyethyl)phosphine and optionally contained 0.1% (w/v) carboxymethylated dextran (average MW 10 kDa) and 0.2% (w/v) PEG (average MW 3450 Da) in order to reduce potential non-specific binding. Peptides were assayed by capturing fresh PCSK9 or PCSK9Δhelix after each binding regeneration cycle by exploiting a histidine tag and an NTA-sensor chip. The surface was charged with (His)8-tagged PCSK9 (approximately 800 RU captured). […] Compound 19 and Compound 20 were assayed in six serial two-fold dilutions from 100 nM to 3.1 nM. All peptides were analyzed in duplicate by serial injection (50 μL/min for 1 min) of peptide dilution from low to high concentration. The surface was then stripped of target by injecting 0.5 M EDTA, pH 8.0. This sequence was repeated for each peptide binding cycle and blank control cycles.
All SPR data was recorded in duplicate for five, or more serial dilutions, except for the two fusion peptides, which produced extremely low fitting error. Multicycle data (i.e. separate curves for each concentration) and single cycle data (i.e. single curve with serial injection of each concentration) were double referenced and fitted to an interaction model using BIAevaluation software. Peptide binding to PCSK9 produced deviations from a simple 1:1 binding interaction model that required application of a two-state model for determination of Kd while interactions with PCSK9Δhelix conformed well to simple 1:1 binding. Kinetic curvature was poorly defined for rapidly dissociating peptides and in these cases Kd was estimated from a steady-state dose response plot. Kd values were reported with associated standard error, a measure of confidence in that parameter value.

[7] = target: T3, PCSK9-R167A:R215A:R218A (PCSK9-AAA) (Homo sapiens, UniProt Q8NBP7, R167A/R215A/R218A); test: FXIa cleavage assay of the P′ helix of PCSK9-AAA; format: biochemical; conditions: immunoblot with anti-N-terminal peptide antibody
T3 construct: made in house; host or cells: CHO (transient)
Description: The PCSK9-AAA mutant (2.6 μM) was incubated with 50 nM FXIa (Haematologic Technologies) in Tris buffer (50 mM Tris, 150 mM NaCl, 4 mM CaCl2, pH 8.0) at room temperature for the indicated time periods. […] After SDS-PAGE of the samples, proteins were transferred to a nitrocellulose membrane using iBlot (Invitrogen). Proteins were then probed with a polyclonal rabbit antibody (1:3000) raised against the PCSK9 N-terminal peptide (^153[…]^168 (SEQ ID NO: 5)), followed with HRP-conjugated donkey anti-rabbit antibody (1:5000, GE Healthcare) using iBind (Invitrogen). PCSK9 signals were detected by ECL (GE Healthcare) and visualized by autoradiography.
Proteins were then probed with a polyclonal rabbit antibody (1:3000) raised against the PCSK9 N-terminal peptide (^153[…]^168 (SEQ ID NO: 5)), followed with HRP-conjugated donkey anti-rabbit antibody (1:5000, GE Healthcare) using iBind (Invitrogen). PCSK9 signals were detected by ECL (GE Healthcare) and visualized by autoradiography.

[8] = target: T1, PCSK9; test: Cell surface LDLR assay with HepG2 cells; format: cell-based; conditions: HepG2 cells, 15 μg/mL PCSK9, 4 h, FACS
Description: HepG2 cells (ATCC; Manassas, Va.) were seeded into 48 well plates (Corning; Corning, N.Y.) at 1×10^5 cells per well in high glucose medium (DMEM, Gibco; Carlsbad, Calif.) containing 2 mM glutamine (Sigma), penicillin/streptomycin (Gibco) and 10% FBS (Sigma; St. Louis, Mo.) and incubated overnight. Then the medium was changed to DMEM containing 10% lipoprotein deficient serum (LPDS, Sigma). After 24 h, 15 μg/mL PCSK9 was incubated with peptides or Fab33 for 30 min, added to the cells and incubated at 37° C. for 4 h. Cells were rinsed with PBS and detached using Cell Dissociation Buffer in PBS (Gibco). After centrifugation, the resuspended cells were incubated with 1:20 anti LDLR antibody (Progen Biotechnik; Heidelberg, Germany) on ice for 10 min. The samples were then washed with PBS and incubated with 1:200 diluted goat anti mouse IgG (H+L) Alexa Fluor 488 (Invitrogen; Carlsbad, Calif.) on ice for 5 min. After two PBS washes, cells were re suspended in PBS containing 2.5 μg/mL of propidium iodide and analyzed on a dual laser flow cytometer (FACScan, Becton Dickinson; Franklin Lakes, N.J.). Relative fluorescence units (RFUs) were used to quantify LDLR expression levels on the HepG2 cell surface. Cell surface LDLR levels were expressed as percent of LDLR levels measured in the absence of PCSK9 (=control).
The effect of Compound 229 on PCSK9-mediated LDL receptor degradation was measured in a HepG2 cell assay as previously described (Zhang et al., J Biol Chem. 2014 Jan. 10; 289(2):942-55). Peptides at various concentrations were preincubated with 15 μg/mL PCSK9 in the presence of 0.5% DMSO for 30 min prior to the addition to cells. After a 4 h incubation, the cells were processed for measurements of LDL receptor surface levels by flow cytometry as described (Zhang et al., J Biol Chem. 2014 Jan. 10; 289(2):942-55) (FIG. 37).

[9] = target: T1, PCSK9; test: Phage competition ELISA; format: binding
Description: The sequences of selected clones were fused to the N-terminus of M13 major coat protein (p8) using Kunkel mutagenesis method (Kunkel et al., Methods Enzymol 154, 367-82). The resulting construct was transformed to E. Coli. XL1 blue, single colony was grown in 1 mL 2YT supplemented with 50 μg/mL carbenicillin, 10 μg/mL Tetracycline and M13 KO7 helper phage at 37° C. for 2 h, Kanamycin was added to final concentration of 25 μg/mL, growth was continued at 37° C. for 6 h. The culture was transferred to 30 mL 2YT supplemented with 50 μg/mL carbenicillin and 25 μg/mL kanamycin and grown at 37° C. overnight. The next day, the phage was harvested and purified using the standard protocol (Tonikian et al. Nat Protoc. 2007; 2(6):1368-86). The serially diluted phage solution was applied to the biotinylated PCSK9 and biotinylated PCSK9Δhelix that had been immobilized for 15 min on a 384-well MaxiSorp ImmunoPlate previously coated with 5 μg/mL NeutrAvidin and blocked with Block buffer. The plate was incubated at 4° C. for 1 h, washed 10 times with PT buffer (PBS, 0.05% Tween® 20). The bound phage was detected with anti-M13-HRP and the ELISA signal was read at OD450 nm. The background was ELISA signal that the phage directly bound to NeutrAvidin-coated plate. The data was plotted and the curve fitted with KaleidaGraph. Sub-saturating phage concentration that gave 80% of maximum binding signal was determined by the binding curve.
IC50 measurements were performed by mixing a fixed sub-saturating concentration of peptide-displaying phage with a serial dilution of synthetic peptides in PBT buffer. The mixture was added to plates coated with PCSK9 and PCSK9Δhelix and incubated for 1 h at room temperature. The plates were then washed 10 times with PBT buffer and the bound phage was detected by anti-M13-HRP. The data was plotted, curve fitted and IC50 derived by use of KaleidaGraph. All measurements were repeated 3 times independently.

[10] = Table 7, Target PCSK9Δhelix, SPR at 20° C., read-out: Kd
[11] = TR-FRET, Example 7, read-out: PCSK9Δhelix/Ab20 IC50
[12] = Table 8D, disulfide-cyclized extension peptides
[13] = TR-FRET counterscreen, Table 8D, * = some inhibition at highest concentrations, not sufficient to fit an IC50
[14] = Example 4, read-out: Kd for PCSK9Δhelix
[15] = TR-FRET, Table 8D, disulfide-cyclized extension peptides, read-out: PCSK9Δhelix/Ab20 IC50

Compound	Kd [1]	Kd [2, 10]	IC50 ([4]; counterscreen, Example 7)	IC50 [5, 11]	IC50 [3, 12]	IC50 [4, 13]	Kd [2, 14]	IC50 [5, 15]	effect on FXIa-mediated cleavage of the P′ helix of PCSK9-AAA [7]	also measured
CC(=O)N[C@H](C(=O)N[C@H](C(=O)N[C@@H](Cc1ccccc1)C(=O)N[C@H](C(=O)N[C@@H](CO)C(=O)N[C@@H](Cc1c[nH]c2cc(F)ccc12)C(=O)N[C@@H](CCC(=O)O)C(=O)N[C@@H](CCC(=O)O)C(=O)N[C@@H](Cc1ccc(O)cc1)C(=O)N[C@@H](CC(C)C)C(=O)N[C@@H](CC(=O)O)C(=O)N[C@@H](Cc1c[nH]c2ccccc12)C(=O)N[C@H](C(N)=O)C(C)C)[C@@H](C)O)C(C)C)[C@@H](C)O [Compound 3, Ac-TVFTS(W6fl)EEYLDWV-NH2]	1.4 µM	2.58 µM	–	–	–	–	–	–	–	improvement of binding to PCSK9 relative to Pep2-8 ([1]; Table 7): about 3 fold
Ac-PWNLVRIGLLR-NH2 [Compound 52]	17.9 µM	2.6 µM	> 50 µM	10.2 µM	–	–	–	–	–	IC50 ([3]; Example 7): > 50 µM; IC50 ([5]; Table 10, average ±S.D. of three experiments, read-out: Ab20 IC50): 15.9 ± 1.1 µM; Kd [6]: 2.1 µM
CC[C@H](C)[C@@H]1NC(=O)[C@H](CCCNC(=N)N)NC(=O)[C@H](C)NC(=O)[C@H](CC(C)C)NC(=O)[C@H](CC(N)=O)NC(=O)[C@H](Cc2c[nH]c3ccccc23)NC(=O)[C@@H]2CCCN2C(=O)[C@H](CC(C)C)NC(=O)[C@H](CCCNC(=N)N)NC(=O)[C@@H](NC(C)=O)CSSC[C@@H](C(N)=O)NC(=O)[C@@H]2CCCN2C(=O)[C@H](CC(C)C)NC(=O)CNC1=O [Compound 73] (Ac-CRLPWNLARIGLPC-NH2; disulfide 1-14)	11 µM	–	–	–	> 50 µM	> 50 µM	0.167 µM	0.915 µM	–	–
CC[C@H](C)[C@@H]1NC(=O)[C@H](CCCNC(=N)N)NC(=O)[C@H](CCC(N)=O)NC(=O)[C@H](CC(C)C)NC(=O)[C@H](CC(N)=O)NC(=O)[C@H](Cc2c[nH]c3ccccc23)NC(=O)[C@@H]2CCCN2C(=O)[C@H]([C@@H](C)CC)NC(=O)[C@H](Cc2ccccc2)NC(=O)[C@@H](NC(=O)CNC(=O)[C@@H](N)CO)CSSC[C@@H](C(N)=O)NC(=O)[C@H](CC(C)C)NC(=O)[C@H](CC(C)C)NC(=O)CNC1=O [Compound 26] (H-SGCFIPWNLQRIGLLC-NH2; disulfide 3-16)	29 µM	0.803 µM	–	–	–	–	–	–	accelerated the cleavage reaction; also recorded: able to increase the FXIa-mediated cleavage; also recorded: strongly accelerated the cleavage	–
CC[C@H](C)[C@@H]1NC(=O)[C@H](CCCNC(=N)N)NC(=O)[C@H](CCC(N)=O)NC(=O)[C@H](CC(C)C)NC(=O)[C@H](CC(N)=O)NC(=O)[C@H](Cc2c[nH]c3ccccc23)NC(=O)[C@@H]2CCCN2C(=O)[C@H](CC(C)C)NC(=O)[C@H](CCCNC(=N)N)NC(=O)[C@@H](NC(C)=O)CSSC[C@@H](C(N)=O)NC(=O)[C@@H]2CCCN2C(=O)[C@H](CC(C)C)NC(=O)CNC1=O [Compound 32] (Ac-CRLPWNLQRIGLPC-NH2; disulfide 1-14)	1.3 µM	–	–	~1 µM	> 50 µM	> 50 µM	0.21 µM	0.97 µM	–	–
CC(=O)N[C@H](C(=O)N[C@H](C(=O)N[C@@H](Cc1ccccc1)C(=O)N[C@H](C(=O)N[C@@H](CO)C(=O)N[C@@H](Cc1c[nH]c2ccccc12)C(=O)N[C@@H](CCC(=O)O)C(=O)N[C@@H](CCC(=O)O)C(=O)N[C@@H](Cc1ccc(O)cc1)C(=O)N[C@@H](CC(C)C)C(=O)N[C@@H](CC(=O)O)C(=O)N[C@@H](Cc1c[nH]c2ccccc12)C(=O)N[C@H](C(N)=O)C(C)C)[C@@H](C)O)C(C)C)[C@@H](C)O [Pep2-8, reference compound]	–	–	> 50 µM	–	–	–	–	–	largely prevented cleavage	EC50 [8]: 5 to 10 µM; competition with binding of phage-displayed Pep2-8 to PCSK9 [9]: inhibited phage-displayed Pep2-8 binding
